Data reported in patent US12115224B2, “Polypeptide conjugates for intracellular delivery of stapled peptides” (Ohio State Innovation Foundation, priority 2017, dated 2024).
“And” between values parts separate entries of the source, which are not always exact repeats. Equal values may be shown once. Numbered stars: 1 amine (or outer) side, 2 acyl side, 3 side chain; on linkers, the order of the positions; unused ones are H or OH. Bridge positions count the residues as written; N and C are the ends. Square brackets hold non-standard residues; d marks the D form. Peptide text beside a SMILES is read from it. I, II: the chains in the order shown. * marks the point of attachment. X2 = NC(=O)[C@H](CCCCNC(=O)c1cc(C[*:1])cc(C[*:2])c1)NC(=O)COCCOCCN[*:3]; X1 = O=C1OC2(c3ccc(C(=O)*)cc31)c1ccc3cc(O)ccc3c1Oc1c2ccc2cc(O)ccc12; X3 = NC(=O)[C@H](CCCCNC(=O)CON=C(C[*:1])C[*:2])NC(=O)COCCOCCN[*:3]; 2Nal = N[C@@H](Cc1ccc2ccccc2c1)C(=O)O; mXylylene = c1cc(C[*:1])cc(C[*:2])c1; NF = 5(6)-carboxynaphthofluorescein; hCys = N[C@@H](CCS)C(=O)O; K(NF) = not defined here; AEEA = NCCOCCOCC(=O)O; βAla = NCCC(=O)O

Legend:
MDM2 [1] = biological target: T1, MDM2 (Homo sapiens, UniProt Q00987); assay: Fluorescence anisotropy (FA)-based competition with FITC-labeled peptide 1 for binding to MDM2; conditions: unlabeled peptides 4 and 5
Text: Expression and Purification of GST-MDM2.

MDM2 [2] = biological target: T1, MDM2; assay: Direct binding of FITC-labeled peptides to MDM2 (KD); conditions: relative to the parent peptide
HeLa cells = assay: Cytosolic entry efficiency of NF-labeled peptides by flow cytometry; conditions: NF-labeled peptide 5 μM, 2 h, 37° C., 10% FBS; relative to CPP9 (100%)
Method: Flow Cytometry. HeLa cells were seeded in 12-well plates at 1.5×10^5 cells per well for 24 h. The next day, naphthofluorescein-labelled peptide (5 μM) was added to the cells in DMEM medium supplemented with 10% fetal bovine serum (FBS) and 1% penicillin/streptomycin and the cells were incubated at 37° C. for 2 h in the presence of 5% CO2. The medium containing the peptide was removed and the cells were washed with DPBS twice. […] Data were analyzed using the Flowjo software (Tree Star).

Compound	fold decrease of MDM2 binding affinity (MDM2 [2])	Cellular Uptake (MFI^NF, %) (HeLa cells)	other results
CC(=O)N[C@@H](CC(C)C)C(=O)N[C@H](C(=O)N[C@@H](Cc1ccccc1)C(=O)N[C@H]1CCSCC(=NOCC(=O)NCCCC[C@H](NC(=O)COCCOCCNC(=O)CC[C@@H]2NC(=O)[C@@H](CCCNC(=N)N)NC(=O)[C@H](CCCNC(=N)N)NC(=O)[C@@H](CCCNC(=N)N)NC(=O)[C@H](CCCNC(=N)N)NC(=O)[C@H](Cc3ccc4ccccc4c3)NC(=O)[C@@H](Cc3ccccc3)NC2=O)C(N)=O)CSCC[C@@H](C(=O)N[C@@H](CCC(N)=O)C(=O)N[C@@H](CC(C)C)C(=O)N[C@H](C(=O)N[C@@H](CO)C(=O)NCCOCCOCC(=O)N[C@@H](CCCCN)C(N)=O)[C@@H](C)O)NC(=O)[C@H](Cc2c[nH]c3ccccc23)NC(=O)[C@H](Cc2ccc(O)cc2)NC(=O)[C@H](Cc2c[nH]cn2)NC1=O)[C@@H](C)O [Peptide 4] (I: Ac-LTF[hCys]HYW[hCys]QLTS[AEEA]K-NH2 / II: cyclo([2Nal]R[dR]R[dR]E[dF]); linker I:4-I:8-II:6 via X3)	–	–	IC50 (MDM2 [1]): 220 nM
CC(=O)N[C@@H](CC(C)C)C(=O)N[C@H](C(=O)N[C@@H](Cc1ccccc1)C(=O)N[C@H]1CSCc2cccc(c2)CSC[C@@H](C(=O)N[C@@H](CCC(N)=O)C(=O)N[C@@H](CC(C)C)C(=O)N[C@H](C(=O)N[C@@H](CO)C(=O)NCCOCCOCC(=O)N[C@@H](CCCCNC(=O)c2ccc3c(c2)C(=O)OC32c3ccc4cc(O)ccc4c3Oc3c2ccc2cc(O)ccc32)C(N)=O)[C@@H](C)O)NC(=O)[C@H](Cc2c[nH]c3ccccc23)NC(=O)[C@H](Cc2ccc(O)cc2)NC(=O)[C@H](Cc2c[nH]cn2)NC1=O)[C@@H](C)O [Peptide 6] (Ac-LTFCHYWCQLTS[AEEA]K(X1)-NH2; linker 4-8 via mXylylene)	~2.5 fold	–	–
CC(=O)N[C@@H](CC(C)C)C(=O)N[C@H](C(=O)N[C@@H](Cc1ccccc1)C(=O)N[C@H]1CSCc2cc(cc(C(=O)NCCCC[C@H](NC(=O)COCCOCCNC(=O)CC[C@@H]3NC(=O)[C@@H](CCCNC(=N)N)NC(=O)[C@H](CCCNC(=N)N)NC(=O)[C@@H](CCCNC(=N)N)NC(=O)[C@H](CCCNC(=N)N)NC(=O)[C@H](Cc4ccc5ccccc5c4)NC(=O)[C@@H](Cc4ccccc4)NC3=O)C(N)=O)c2)CSC[C@@H](C(=O)N[C@@H](CCC(N)=O)C(=O)N[C@@H](CC(C)C)C(=O)N[C@H](C(=O)N[C@@H](CO)C(=O)NCCOCCOCC(=O)N[C@@H](CCCCNC(=O)c2ccc3c(c2)C(=O)OC32c3ccc4cc(O)ccc4c3Oc3c2ccc2cc(O)ccc32)C(N)=O)[C@@H](C)O)NC(=O)[C@H](Cc2c[nH]c3ccccc23)NC(=O)[C@H](Cc2ccc(O)cc2)NC(=O)[C@H](Cc2c[nH]cn2)NC1=O)[C@@H](C)O [Peptide 7] (I: Ac-LTFCHYWCQLTS[AEEA]K(X1)-NH2 / II: cyclo([2Nal]R[dR]R[dR]E[dF]); linker I:4-I:8-II:6 via X2)	~2 fold	–	–
CC(=O)N[C@@H](CC(C)C)C(=O)N[C@H](C(=O)N[C@@H](Cc1ccccc1)C(=O)N[C@H]1CCSCc2cccc(c2)CSCC[C@@H](C(=O)N[C@@H](CCC(N)=O)C(=O)N[C@@H](CC(C)C)C(=O)N[C@H](C(=O)N[C@@H](CO)C(=O)NCCOCCOCC(=O)N[C@@H](CCCCNC(=O)c2ccc3c(c2)C(=O)OC32c3ccc4cc(O)ccc4c3Oc3c2ccc2cc(O)ccc32)C(N)=O)[C@@H](C)O)NC(=O)[C@H](Cc2c[nH]c3ccccc23)NC(=O)[C@H](Cc2ccc(O)cc2)NC(=O)[C@H](Cc2c[nH]cn2)NC1=O)[C@@H](C)O [Peptide 8, Ac-LTFhCHYWhCQLTS-miniPEG-K(NF)-NH2] (Ac-LTF[hCys]HYW[hCys]QLTS[AEEA]K(X1)-NH2; linker 4-8 via mXylylene)	–	–	fold improvement of MDM2 binding affinity (MDM2 [2]): 5 fold
CC(=O)N[C@@H](CC(C)C)C(=O)N[C@H](C(=O)N[C@@H](Cc1ccccc1)C(=O)N[C@H]1CCSCc2cc(cc(C(=O)NCCCC[C@H](NC(=O)COCCOCCNC(=O)CC[C@@H]3NC(=O)[C@@H](CCCNC(=N)N)NC(=O)[C@H](CCCNC(=N)N)NC(=O)[C@@H](CCCNC(=N)N)NC(=O)[C@H](CCCNC(=N)N)NC(=O)[C@H](Cc4ccc5ccccc5c4)NC(=O)[C@@H](Cc4ccccc4)NC3=O)C(N)=O)c2)CSCC[C@@H](C(=O)N[C@@H](CCC(N)=O)C(=O)N[C@@H](CC(C)C)C(=O)N[C@H](C(=O)N[C@@H](CO)C(=O)NCCOCCOCC(=O)N[C@@H](CCCCNC(=O)c2ccc3c(c2)C(=O)OC32c3ccc4cc(O)ccc4c3Oc3c2ccc2cc(O)ccc32)C(N)=O)[C@@H](C)O)NC(=O)[C@H](Cc2c[nH]c3ccccc23)NC(=O)[C@H](Cc2ccc(O)cc2)NC(=O)[C@H](Cc2c[nH]cn2)NC1=O)[C@@H](C)O [Peptide 9, Ac-LTFhCHYWhCQLTS-miniPEG-K(NF)-NH2] (I: Ac-LTF[hCys]HYW[hCys]QLTS[AEEA]K(X1)-NH2 / II: cyclo(R[dR]E[dF][2Nal]R[dR]); linker I:4-I:8-II:3 via X2)	~8 fold	–	–
CC(=O)N[C@@H](CCC(=O)O)C(=O)N[C@H](C(=O)N[C@@H](Cc1ccccc1)C(=O)N[C@H]1CSCc2cc(cc(C(=O)NCCCC[C@H](NC(=O)COCCOCCNC(=O)CC[C@@H]3NC(=O)[C@@H](CCCNC(=N)N)NC(=O)[C@H](CCCNC(=N)N)NC(=O)[C@@H](CCCNC(=N)N)NC(=O)[C@H](CCCNC(=N)N)NC(=O)[C@H](Cc4ccc5ccccc5c4)NC(=O)[C@@H](Cc4ccccc4)NC3=O)C(N)=O)c2)CSC[C@@H](C(=O)N[C@@H](CCC(N)=O)C(=O)N[C@@H](CC(C)C)C(=O)N[C@H](C(=O)N[C@@H](CO)C(=O)NCCOCCOCC(=O)N[C@@H](CCCCNC(=O)c2ccc3c(c2)C(=O)OC32c3ccc4cc(O)ccc4c3Oc3c2ccc2cc(O)ccc32)C(N)=O)[C@@H](C)O)NC(=O)[C@H](Cc2c[nH]c3ccccc23)NC(=O)[C@H](Cc2ccc(O)cc2)NC(=O)[C@H](Cc2c[nH]cn2)NC1=O)[C@@H](C)O [Peptide 11] (I: Ac-ETFCHYWCQLTS[AEEA]K(X1)-NH2 / II: cyclo([2Nal]R[dR]R[dR]E[dF]); linker I:4-I:8-II:6 via X2)	6 fold	–	–
Ac-ETFCHYWCQLTS-miniPEG-K(NF)-NH2 (Ac-ETFCHYWCQLTS-{miniPEG-K(NF)-NH2}; linker 4-8 via xylene; reading uncertain; also: printed as Ac-ETFCHYWCQLTS-miniPEG-K(NF)-NH2) [Peptide 10]	–	2.8% and 2.8 ± 0.1%	–
NF-βA-ENPECILDCHVQRVM-NH2 [16] ({NF-βAla}-ENPECILDCHVQRVM-NH2; bridge 5-9; not fully specified (bridges)) [Peptide 16]	–	2.5% and 2.5 ± 0.5%	–
NF-βA-NPECILDCHVQRVM-NH2 [18] ({NF-βAla}-NPECILDCHVQRVM-NH2; bridge 4-8; not fully specified (bridges)) [Peptide 18]	–	8.9% and 8.9 ± 2.9%	–
NF-βA-RKFCRLFC-NH2 [14] ({NF-βAla}-RKFCRLFC-NH2; bridge 4-8; not fully specified (bridges)) [Peptide 14]	–	47% and 47 ± 9%	–
